How the values were obtained:
[1] = tested on: patient with complication of AZD and CAA; test: Clinical case, Example 1: patient with complication of AZD and CAA; assay type: in vivo, human
Excerpt: Patient
Family history: […] died of cerebral hemorrhage (type unknown) in his 50s. […]
Past history: deep white matter lesions (diagnosed by head MRI, T2-WI), lateral ventricular low density area (diagnosed by head CT), and moderate cerebral atrophy in the cerebral cortex including the hippocampus, parietal lobe, and frontal lobe and mild disturbance of memorization had been observed. However, there was no particular problem in everyday life.
History of present illness: person, walking difficulty (decreased speed and decreased stability of walking) appeared and then progressed slowly. Continuous walking of long distances of 600 m or more and walking with a heavy load (10 kg or more) in their hand or on their shoulder became difficult. Short-stepped gait and frontal gait appeared sometimes, with no fall. Cerebrovascular disorder was suspected and examinations by CT and MRI (other than T2-WI) were conducted. However, any responsible lesions, which were likely to develop relatively rapid walking difficulties, were not found, other than deep white matter lesions and moderate cerebral atrophy, which were observed previously. Parkinson's disease (syndrome) was also suspected and a therapeutic agent for the disease was temporarily administered, which was stopped because of the lack of efficacy. […] Instability of walking also progressed relatively rapidly and it became difficult to walk outdoor without a walking stick.
Meanwhile, MRI (T1/2WI, T2-WI) detected multiple micro-bleeding mainly in the area from bilateral basal ganglia (thalamus and hypothalamus) to upper brain stem and the patient was diagnosed with CAA. The patient was also diagnosed with AZD based on diffuse cerebral atrophy including hippocampus and a wide range of cerebral cortex and moderate dementia. […]
For walking, an assistance, or at least handrail, became always necessary and continuous walking of distances of 50 m or more became difficult (unstable) even with an assistance. Furthermore, the patient was frequently found in a somnolence state even in the daytime and occasional decrease in the level of consciousness during meal caused difficulty in swallowing. Standing and walking became impossible during a period of repeated high fever. Chest CT detected a sign of aspiration pneumonia and the patient was admitted to a nearby hospital.
Immediately after the hospitalization, administration of antibiotics against the pulmonary inflammatory disease was started and high dose administration of mineralocorticoid (200 mg injection of Hydrocortone/day, for 7 days in plan) was also started for the purpose of steroid supplementation against the potential hypoadrenalism (mineral imbalance), due to the previous sustained steroid (5 mg) therapy. […] On Day 9 after the hospitalization, the patient became almost bedridden and nonresponsive. On Day 10 after the hospitalization, administration of a high dose of glucocorticoid (30 mg/day of Predonine) for anti-inflammatory effect was therefore started for the purpose of ameliorating the cerebral hypofunction, based on the informed consent.
However, from Day 20 after the hospitalization, a somnolence tendency appeared again and the symptoms of decline of cognitive ability, inability to walk, lack of speech, urine incontinence, apraxia and agnosia appeared again.
Since no tendency to alleviate the symptoms was observed, on Day 22 after the hospitalization, administration of 25 mg of iguratimod (for example, the trade name “Kolbet” produced and sold as an antirheumatic drug by Taisho Toyama Pharmaceutical Co., Ltd. or the trade name “Careram” produced and sold by Eisai Co., Ltd.), in addition to the high dose glucocorticoid therapy, was started for the purpose of ameliorating cognitive impairment, walking impairment, decrease of energy and spontaneity, and aphasia, apraxia, and agnosia, based on the informed consent. […]

[2] = tested on: patient with moderate dementia caused by AZD; test: Clinical case, Example 2: patient with moderate dementia caused by AZD, not associated with CAA; assay type: in vivo, human
Procedure: A person became indifferent to social activities and meeting people 3 to 4 years ago. Cognitive impairment appeared to the degree to cause difficulty in daily life activities 2 years ago. One year ago, cognitive impairment further progressed and MMSE was conducted to get scores of 14 or less. Since a head imaging detected moderate atrophy in the cerebral cortex including the parietal lobe and the hippocampus, the patient was diagnosed with “moderate dementia caused by AZD” based on the clinical and brain imaging observations. In the everyday life, disturbance of memorization was observed, in which the patient forgot contents of conversation in 5 minutes and purchased the same thing repeatedly when they went out alone. The patient liked cooking previously, but became unable to cook or adjust the taste. […] The patient became unable to manage own medication such as an antihypertensive agent (cognitive impairment on table and calculation) and management by a family member became necessary. Since efficacy (suppression of progressive symptoms) of a conventional drug against AZD was not observed for a half year or more, the administration of iguratimod at 25 mg/day was started, based on the informed consent to the patient and their family, and the dose was increased to 50 mg/day 4 weeks later.

[3] = compared with MTX and SASP; cited from earlier work
[4] = tested on: production of interleukin-1 and 6 (IL-1/6) and tumor necrosis factor (TNFα) from monocyte lineage cells (macrophages); settings: in inflammation; cited from earlier work
[5] = 6 months after starting the administration
[6] = at discharge, 2 months after starting the administration

C[C@]12CCC(=O)C=C1CC[C@@H]1[C@@H]2[C@@H](O)C[C@@]2(C)[C@H]1CC[C@]2(O)C(=O)CO [Hydrocortone]
neurological symptoms (energy, speech, cognitive function, walking ability) ([1]; 200 mg injection/day, from 3 days after the start of the steroid replacement therapy): increase in energy and speech, amelioration of cognitive function, and improvement of walking ability were observed
neurological symptoms ([1]; 200 mg injection/day, from Day 5 to 6 after the start of administration): the symptoms gradually aggravated

C[C@]12C=CC(=O)C=C1CC[C@@H]1[C@@H]2[C@@H](O)C[C@@]2(C)[C@H]1CC[C@]2(O)C(=O)CO [Predonine]
neurological symptoms (somnolence, energy, speech, walking, meals) ([1]; high dose glucocorticoid (30 mg/day of Predonine) started on Day 10 after hospitalization): alleviated a neurological symptom (decrease in somnolence), increased energy and speech
prevention of progression of the symptoms ([1]; sustained glucocorticoid therapy at maximum dose for the patient's age, for 10 days or more, symptoms reappeared from Day 20 after hospitalization): cannot prevent the progression of the symptoms

CS(=O)(=O)Nc1cc2occ(NC=O)c(=O)c2cc1Oc1ccccc1 [iguratimod, N-(3-formamido-4-oxo-6-phenoxy-4H-chromen-7-yl) methanesulfonamide]
head imaging: progression of cerebral atrophy ([2]; 5 months after starting the administration): the progression of cerebral atrophy was not observed
Scores of MMSE ([2]; 5 months after starting the administration, scores one year before 14 or less): ≥ 17
symptoms in daily life ([2]; iguratimod 25 mg/day, 50 mg/day after 4 weeks, 3 months after starting the administration): symptoms such as getting lost and failing to go home and purchasing the same thing repeatedly had disappeared
continuous walking distance with an assistance [1, 5]: about 100 m
steps of stairs walked up with an assistance and use of handrail [1, 5]: 15 steps
head MRI: novel vascular abnormality or progression of cerebral atrophy ([1]; 6 months after starting the administration, compared with MRI before starting): did not detect any appearance of novel vascular abnormality or progression of cerebral atrophy
head imaging by 3T-MRI:SWI: progression of cerebral atrophy and other lesions ([1]; 7 months and 19 months after the beginning of iguratimod): the progression of cerebral atrophy and other lesions was not apparent
eating behavior ([1]; a half year after starting the administration): able to have meals by oneself using chopsticks
continuous walking distance with an assistance [1, 6]: about 50 m
steps of stairs walked up with an assistance at both arms [1, 6]: 8 steps
spontaneity and neurological symptoms ([1]; iguratimod 25 mg added to high dose glucocorticoid, 2 days after starting the administration): apparent amelioration of spontaneity was observed
mini-mental state examination (MMSE) score ([1]; one year after starting oral administration, score before starting 10 or less (severe dementia)): ≥ 10
symptoms after steroid agent stopped completely ([1]; one year after starting the administration of iguratimod): no aggravation of symptoms
efficacy in rheumatoid arthritis [3]: efficacy equivalent to MTX and SASP
effect on production of IL-1/6 and TNFα from monocyte lineage cells (macrophages) [4]: suppressing effects

— US9968585B2, “Prevention or treatment agent for cerebral amyloid beta storage diseases” (TOYAMA CHEMICAL CO., LTD., priority 2014, dated 2018)
